# PubChem BioAssay (NCI)
# “And” between values parts separate entries of the source, which are not always exact repeats. Equal entries are not always repeated.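 Grown in 96-well plates, cells were treated for 48 hours with each compound at five concentrations. Insufficient inhibition: endpoint recorded as highest concentration tested. At the GI50, growth is halved. TGI is the concentration that stops growth completely.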
# Legend:
# Assay in all cases: NCI tumour cell line growth inhibition, 48 h
# SNB-78 CNS = test system: SNB-78 CNS
# MDA-MB-435 = test system: MDA-MB-435
# U251 CNS = test system: U251 CNS
# SW-620 colon = test system: SW-620 colon
# M19-MEL melanoma = test system: M19-MEL melanoma
# LOX IMVI melanoma = test system: LOX IMVI melanoma
# BT-549 breast = test system: BT-549 breast
# UACC-62 melanoma = test system: UACC-62 melanoma
# NCI-H226 lung = test system: NCI-H226 lung
# MOLT-4 leukemia = test system: MOLT-4 leukemia
Structure (SMILES),TGI (SNB-78 CNS),TGI (MDA-MB-435),TGI (U251 CNS),TGI (SW-620 colon),TGI (M19-MEL melanoma),TGI (LOX IMVI melanoma),TGI (BT-549 breast),TGI (UACC-62 melanoma),TGI (NCI-H226 lung),TGI (MOLT-4 leukemia),GI50 (SNB-78 CNS),GI50 (U251 CNS),GI50 (SW-620 colon),GI50 (LOX IMVI melanoma),GI50 (UACC-62 melanoma),GI50 (MOLT-4 leukemia)
COc1cc2[nH]c3c(c2cc1OC)CCN[C@@]31CC[C@@]2(CC3c4c(cc(OC)c(O)c42)CCN3C)C[C@@H]1OC (some centres not stated),> 100 µM,41.4 µM,> 91.4 µM,> 92.2 µM,40 µM,41.4 µM,> 71.3 µM,45.3 µM,> 100 µM,> 56.2 µM,,,,,,
Cc1cc(N(CCC#N)S(=O)(=O)c2ccccc2)ccc1C=Nc1ccc(C(=O)O)cc1,34.7 µM,> 100 µM,38.2 µM,15 µM,7.32 µM,25.5 µM,> 100 µM,37.1 µM,40.7 µM,13.8 µM,,,,,,
Cc1cc(-c2ccccc2)nc(Nc2cc3ccccc3[nH]2)n1,> 100 µM,,> 100 µM,> 100 µM,> 100 µM,> 100 µM,,> 100 µM,> 100 µM,> 100 µM,,,,,,
COc1cc(C2c3cc4c(cc3[C@@H](NC3CCN(Cc5ccccc5)CC3)C3COC(=O)[C@H]23)OCO4)cc(OC)c1O (some centres not stated),6.03 µM and 8.24 µM,,0.594 µM and 0.183 µM,2.42 µM and 1.08 µM,2.1 µM and 1.9 µM,1.18 µM and 0.231 µM,,1.38 µM and 0.216 µM,0.101 µM and 0.0535 µM,0.0129 µM and 0.0258 µM,2.04 µM and 0.887 µM,0.115 µM and 0.026 µM,0.232 µM and 0.076 µM,0.145 µM and 0.0349 µM,0.217 µM and 0.0359 µM,< 0.01 µM
COc1ccc(N=NC2=C(O)CCC2=O)cc1,> 100 µM,,> 100 µM,> 100 µM,> 100 µM,> 100 µM,,30.6 µM,> 100 µM,> 100 µM,,,,,,
CC1(C)CC(=O)C(CC2C(=O)CCCC2=O)C(=O)C1,> 100 µM,,> 100 µM,> 100 µM,> 100 µM,> 100 µM,,> 100 µM,> 100 µM,> 100 µM,,,,,,
CCC(=O)OCOc1ccc(/C=C2\CCC(CN(C)C)C2=O)cc1 (configuration not stated),31.5 µM,10.6 µM,26.2 µM,7.38 µM,11.1 µM,4.1 µM,13.6 µM,13.6 µM,31.8 µM,8.07 µM,,,,,,
CCCCCCCCCC1CC(=O)OC2=C1C(=O)CCC2 (configuration not stated),> 100 µM,,> 100 µM,> 100 µM,> 100 µM,> 100 µM,,> 100 µM,> 100 µM,> 100 µM,,,,,,
NC(=O)NNC/C(Cl)=C(\Cl)C(=O)O,> 100 µM,,> 100 µM,> 100 µM,> 100 µM,> 100 µM,,> 100 µM,> 100 µM,> 100 µM,,,,,,
C/C(=N\N=C(N)N)C(CN1CCOCC1)C(c1ccccc1)c1c(O)c2ccccc2oc1=O (configuration not stated),> 100 µM,,> 100 µM,> 100 µM,> 100 µM,> 100 µM,,> 100 µM,> 100 µM,> 100 µM,,,,,,
